Converted amounts (≈) assume the structure as drawn. Read-outs that look alike come from different tables or passages of the source. Starred links: 1 amine or outer side, 2 acyl side, 3 side chain; linkers in the order of their positions; H or OH if unused. Non-standard residues stand in square brackets, D forms with d. Residues, ends and D or L forms follow the SMILES beside them. Groups on a side chain read outwards from the residue. *: point of attachment. X3 = CCCCCCCCCCCCCCCCCC(=O)N[C@@H](CCC(=O)N[C@@H](CCC(=O)N[C@@H](CCC(=O)NCCCOCCOCCOCCCNC(=O)CCC(=O)NCCCOCCOCCOCCCNC(=O)CCC(=O)NCCCOCCOCCOCCCN*)C(=O)O)C(=O)O)C(=O)O; X4 = CCCCCCCCCCCCCCCCCC(=O)N[C@@H](CCC(=O)N[C@@H](CCC(=O)N[C@@H](CCC(=O)NCCCOCCOCCOCCCNC(=O)CCC(=O)NCCCOCCOCCOCCCN*)C(=O)O)C(=O)O)C(=O)O; Suc = O=C(CCC(=O)[*:2])[*:1]; αMeK = C[C@](N)(CCCCN)C(=O)O; Aib = CC(C)(N)C(=O)O

A short description of data set [1]: Stability in rat plasma. It is filed as in vitro ADME. The note with it: for Rat plasma stability % remaining: T = 0, 37° C., 5 μM. How it is done:
(§1) Prior to the testing of stability in plasma (or blood) of a peptide batch, its purity (HPLC-UV) was determined.
(§2) Rat and Human plasma: anti-coagulant sodium or lithium heparin.
(§3) 100 μM solution of study compound in 50 mM phosphate buffer pH 7.4.
(§4) 950 μL plasma (or blood) was pre-incubated for 5 min at 37° C. 50 μL of compound stock solution was added. Final compound concentration=5 μM. Vortex and transfer 150 μL plasma (or blood) into an Eppendorf for each time point. The time points […] were carried out in duplicate for each species.
(§5) After incubation, 150 μL plasma (or blood) was extracted with 600 μL Acetonitrile containing 1% TFA. Said mixture was then vortexed and centrifuged 10 min at 14600 rpm. 200 μL supernatant was dried under N2. Sample was then reconstituted in 200 μL of H2O/CH3CN 98/2+0.1% FA+50 ng/ml Labetalol and analyzed using the analytical system used in solubility and stability studies.
(§6) For determination of the amount of the remaining peptide, the peak areas of the target compound at t0 and each time point […] were compared, resulting in “% remaining peptide”, following the equation: % remaining peptide=[(peak area peptide time)×100]/peak area peptide t0. The stability was expressed as “% remaining peptide”.

A short description of data set [2]: in vivo. Details: species or system Sprague Dawley rats. Particulars: Sprague Dawley, rat; for bioavailability / Cmax / Tmax: sc; for Cmax / Tmax: 3 mg/kg. How it is done:
Prior to the testing of a peptide batch, its purity (HPLC-UV) was determined. Dose was corrected for presence of salts, solvent and purity. Bioanalytical screening method for quantification of peptides in rat: Sprague Dawley rats were dosed with study peptide at a dose of 1 mg/kg intravenously (i.v.) or 3 mg/kg subcutaneously (s.c.) as a solution in PBS (0.2 mg/ml and 0.6 mg/ml respectively). Blood samples were collected after: 0.083, 0.25, 0.5, 1, 2, 4, 8, 24, 48 and 72 h (i.v. route) and 0.25, 0.5, 1, 2, 4, 6, 8, 10, 24, 48 and 72 h (s.c route) post application. Plasma samples were analyzed after protein precipitation via liquid chromatography mass spectrometry (LC/MS). PK parameters and half-life were calculated using Phoenix 64 (WinNonlin 6.4)-Pharsight (Certara™) (non-compartment model). Values below the limit of quantification (BLQ) were replaced by zero for subsequent calculations and PK analysis. T½: in-vivo half-life, time required for test compound plasma concentration to be divided by two during the PK experiment. C0: Extrapolated test compound plasma concentration at t=0 time point (i.v. route). Cmax: maximal test compound plasma concentration at the indicated time point (s.c. route). Tmax: Time point where Cmax was attained. F %: s.c. vs i.v. bioavailability, dose-corrected area under curve (AUC) s.c. route divided by AUC i.v.

Data set [3] is described as follows: Stability in human plasma. It is filed as in vitro ADME. The note with it: for Human Plasma stability % remaining: T = 0, 37° C., 5 μM; for remaining at 1 h, 5 μM / remaining at 4 h, 5 μM: human, plasma (sodium or lithium heparin), 37° C. How it is done:
as §1, §2, §3, §4, §5, §6

The target of data set [4] is T1, RXFP1 (Homo sapiens, UniProt Q9HBX9).
T1 construct: OVCAR5 cells expressing endogenous RXFP1; endogenous in cells; host or cells: OVCAR5
T1 sequence (Q9HBX9 1-757): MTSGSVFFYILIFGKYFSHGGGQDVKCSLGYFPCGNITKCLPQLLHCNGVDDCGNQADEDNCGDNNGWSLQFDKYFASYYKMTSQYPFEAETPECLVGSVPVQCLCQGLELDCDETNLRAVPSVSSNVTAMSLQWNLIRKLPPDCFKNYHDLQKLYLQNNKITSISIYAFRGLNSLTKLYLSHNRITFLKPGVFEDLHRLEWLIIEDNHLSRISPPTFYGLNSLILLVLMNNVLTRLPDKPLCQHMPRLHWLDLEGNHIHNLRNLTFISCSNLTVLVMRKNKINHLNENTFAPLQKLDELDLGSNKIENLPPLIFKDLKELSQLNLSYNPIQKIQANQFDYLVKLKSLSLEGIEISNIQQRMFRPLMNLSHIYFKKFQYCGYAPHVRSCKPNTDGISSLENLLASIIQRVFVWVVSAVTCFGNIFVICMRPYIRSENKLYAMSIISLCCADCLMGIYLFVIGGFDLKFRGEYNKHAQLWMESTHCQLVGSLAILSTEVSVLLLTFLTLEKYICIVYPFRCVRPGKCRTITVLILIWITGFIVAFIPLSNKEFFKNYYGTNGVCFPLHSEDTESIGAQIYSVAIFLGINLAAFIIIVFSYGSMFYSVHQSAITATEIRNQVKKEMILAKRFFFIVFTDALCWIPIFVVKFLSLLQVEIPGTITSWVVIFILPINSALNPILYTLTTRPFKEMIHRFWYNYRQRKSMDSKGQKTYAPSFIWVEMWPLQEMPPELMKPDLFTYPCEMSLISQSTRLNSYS
Put plainly: OVCAR5 cAMP assay (HTRF). It is filed as cell-based. The note with it: for EC50: OVCAR 5 cells expressing endogenous RXFP1, cAMP readout; for Emax: OVCAR 5 cells, maximal cAMP relative to H2-relaxin. In a few lines: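 Endogenous RXFP1 in OVCAR5 cells, pretreated 40 min at 37° C with 1 mM IBMX, then exposed to increasing peptide concentrations in serum-free medium for 30 min at 37° C. cAMP read by HTRF; EC50 by variable-slope sigmoidal fit, Emax as % of H2-relaxin maximal cAMP in same run.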

Data set [5] can be described thus: Solubility testing in buffer. It is filed as physicochemical. The note with it: target solubility 10.0 mg/ml.
Where [6] appears, read: rat, plasma (sodium or lithium heparin), 37° C.
The mark [7] stands for this setting: acetate buffer 50 mM pH 4.5, read-out: Solubility Acetate buffer pH 4.5.
Setting [8] is: phosphate buffer 50 mM pH 7.4, read-out: Solubility phosphate buffer pH 7.4.

As for `CCCCCCCCCCCCCCCCCC(=O)N[C@@H](CCC(=O)N[C@@H](CCC(=O)N[C@@H](CCC(=O)NCCCOCCOCCOCCCNC(=O)CCC(=O)NCCCOCCOCCOCCCNC(=O)CCC(=O)NCCCC[C@H](NC(=O)CNC(=O)[C@H](CCC(=O)O)NC(=O)C(C)(C)NC(=O)C(C)(C)NC(=O)[C@@H](NC(=O)[C@H](CCCCNC(C)=O)NC(=O)[C@H](C)NC(=O)[C@H](CCCNC(=N)N)NC(=O)[C@@H](NC(=O)[C@H](CCCCN)NC(=O)[C@H](CCC(=O)O)NC(=O)[C@H](CCCNC(=N)N)NC(=O)CNC(=O)[C@H](CCC(=O)O)NC(=O)[C@H](CC(C)C)NC(C)=O)C(C)C)[C@@H](C)CC)C(=O)N[C@@H](CO)C(=O)N[C@H](C(=O)N[C@@H](Cc1c[nH]c2ccccc12)C(=O)N[C@@H](CO)C(=O)NC(C)(C)C(=O)N[C@@H](CCCNC(=N)N)C(=O)N[C@@H](CCCCN)C(=O)N[C@@H](CCCCNC(C)=O)C(N)=O)[C@@H](C)O)C(=O)O)C(=O)O)C(=O)O` [compound 6] (Ac-LEGREKVRAK(Ac)I[Aib][Aib]EGK([Suc-X4])STWS[Aib]RKK(Ac)-NH2), the “Rat plasma stability % remaining” value in data set [1] came out at 97%. The molecule further yielded an amount remaining at 1 h, 5 μM in data set [1] (setting [6]) of 94%. In data set [2] (iv, 1 mg/kg), this molecule gave a C0 of 5170 nM and a half-life of 5.59 h. In addition, in data set [2], the bioavailability was 72%, the Cmax was 2710 nM and the Tmax amounted to 8 h. Moreover, in data set [3], the “Human Plasma stability % remaining” value is given as 97%; the amount remaining at 1 h, 5 μM was found to be 92%; the fraction remaining at 4 h, 5 μM is 91%. In data set [4], this molecule returned an EC50 of 0.27 nM and an Emax of 95%.
As to `CCCCCCCCCCCCCCCCCC(=O)N[C@@H](CCC(=O)N[C@@H](CCC(=O)N[C@@H](CCC(=O)NCCCOCCOCCOCCCNC(=O)CCC(=O)NCCCOCCOCCOCCCNC(=O)CCC(=O)NCCCOCCOCCOCCCNC(=O)CCC(=O)NCCCC[C@H](NC(=O)CNC(=O)[C@H](CCC(=O)O)NC(=O)C(C)(C)NC(=O)C(C)(C)NC(=O)[C@@H](NC(=O)[C@H](CCCCNC(C)=O)NC(=O)[C@H](C)NC(=O)[C@H](CCCNC(=N)N)NC(=O)[C@@H](NC(=O)[C@H](CCCCN)NC(=O)[C@H](CCC(=O)O)NC(=O)[C@H](CCCNC(=N)N)NC(=O)CNC(=O)[C@H](CCC(=O)O)NC(=O)[C@H](CC(C)C)NC(C)=O)C(C)C)[C@@H](C)CC)C(=O)N[C@@H](CO)C(=O)N[C@H](C(=O)N[C@@H](Cc1ccccc1)C(=O)N[C@@H](CO)C(=O)N[C@@](C)(CCCCN)C(=O)N[C@@H](CCCNC(=N)N)C(=O)N[C@@H](C)C(=O)N[C@@H](CCCCNC(C)=O)C(N)=O)[C@@H](C)O)C(=O)O)C(=O)O)C(=O)O` [compound 7] (Ac-LEGREKVRAK(Ac)I[Aib][Aib]EGK([Suc-X3])STFS[αMeK]RAK(Ac)-NH2), in data set [1], the “Rat plasma stability % remaining” value was 77%. The molecule also yielded a fraction remaining at 1 h, 5 μM in data set [1] (setting [6]) of 100%. In addition, the share remaining at 4 h, 5 μM in data set [1] (rat, plasma (sodium or lithium heparin), 4 h, 37° C.) was 66%. In data set [2] (iv, 1 mg/kg), this molecule had a C0 of 4160 nM and a half-life of 6.34 h. In data set [2], the bioavailability worked out at 61%, the Cmax was determined as 1530 nM and the Tmax amounted to 10 h. Further, in data set [3], the “Human Plasma stability % remaining” value is recorded as 92%; the fraction remaining at 1 h, 5 μM came to 94%; the amount remaining at 4 h, 5 μM turned out to be 87%. Further, in data set [4], the EC50 came to 0.07 nM and the Emax turned out to be 95%. Further, the solubility in data set [5] (setting [7]) came to 11.5 mg/mL (≈ 2610 µM). Further, the solubility in data set [5] (setting [8]) was 11.8 mg/mL (≈ 2700 µM).
Regarding `CCCCCCCCCCCCCCCCCC(=O)N[C@@H](CCC(=O)N[C@@H](CCC(=O)N[C@@H](CCC(=O)NCCCOCCOCCOCCCNC(=O)CCC(=O)NCCCOCCOCCOCCCNC(=O)CCC(=O)NCCCOCCOCCOCCCNC(=O)CCC(=O)NCCCC[C@H](NC(=O)CNC(=O)[C@H](CCC(=O)O)NC(=O)C(C)(C)NC(=O)C(C)(C)NC(=O)[C@@H](NC(=O)[C@H](CCCCNC(C)=O)NC(=O)[C@H](C)NC(=O)[C@H](CCCNC(=N)N)NC(=O)[C@@H](NC(=O)[C@H](CCCCN)NC(=O)[C@H](CCC(=O)O)NC(=O)[C@H](CCCNC(=N)N)NC(=O)CNC(=O)[C@H](CCC(=O)O)NC(=O)[C@H](CC(C)C)NC(C)=O)C(C)C)[C@@H](C)CC)C(=O)N[C@@H](CO)C(=O)N[C@H](C(=O)N[C@@H](Cc1c[nH]c2ccccc12)C(=O)N[C@@H](CO)C(=O)NC(C)(C)C(=O)N[C@@H](CCCNC(=N)N)C(=O)N[C@@H](CCCCN)C(=O)N[C@@H](CCCCNC(C)=O)C(N)=O)[C@@H](C)O)C(=O)O)C(=O)O)C(=O)O` [compound 20] (Ac-LEGREKVRAK(Ac)I[Aib][Aib]EGK([Suc-X3])STWS[Aib]RKK(Ac)-NH2), in data set [1], the “Rat plasma stability % remaining” value is on record as 100%. The share remaining at 1 h, 5 μM in data set [1] (setting [6]) came to 100%. For the same molecule, in data set [2] (iv, 1 mg/kg), the C0 came to 3090 nM and the “T½ (h), in-vivo half-life” value is 5.13 h. Moreover, in data set [2], the bioavailability came out at 80%, the Cmax was found to be 1990 nM and the Tmax amounted to 10 h. Also, in data set [3], the “Human Plasma stability % remaining” value is given as 87%; the amount remaining at 1 h, 5 μM stood at 100%; the fraction remaining at 4 h, 5 μM was 83%. In data set [4], this molecule yielded an EC50 of 0.15 nM and a maximum response (Emax) of 96%. In data set [5] (setting [7]), the solubility was 9.34 mg/mL (≈ 2110 µM). For the same molecule, the solubility in data set [5] (setting [8]) stood at 9.95 mg/mL (≈ 2250 µM).

For the origin of these results see patent publication US11725036B2, “Modified lipidated relaxin B chain peptides and their therapeutic use” (Sanofi, priority 2018, dated 2023).
